Results published in ChEMBL document CHEMBL5108015, “4,6-Disubstituted-1H-Indazole-4-Amine derivatives with immune-chemotherapy effect and in vivo antitumor activity” (Eur J Med Chem, 2022).

Tests used:
[1] = biological target: T1, Tryptophan 2,3-dioxygenase (Homo sapiens, UniProt P48775); assay: (§1) Inhibition of N-terminal hexa-histidine tagged human TDO (19 to 388 residues) expressed in Escherichia coli Transetta (DE3) using L-tryptophan as substrate at 100 uM preincubated with enzyme for 10 mins followed by substrate addition and measured after 30 to 60 mins by microplate reader analysis relative to control; settings: time 40-70 min
Target sequence in this assay (P48775 whole entry, looked up, the tested form may be a part): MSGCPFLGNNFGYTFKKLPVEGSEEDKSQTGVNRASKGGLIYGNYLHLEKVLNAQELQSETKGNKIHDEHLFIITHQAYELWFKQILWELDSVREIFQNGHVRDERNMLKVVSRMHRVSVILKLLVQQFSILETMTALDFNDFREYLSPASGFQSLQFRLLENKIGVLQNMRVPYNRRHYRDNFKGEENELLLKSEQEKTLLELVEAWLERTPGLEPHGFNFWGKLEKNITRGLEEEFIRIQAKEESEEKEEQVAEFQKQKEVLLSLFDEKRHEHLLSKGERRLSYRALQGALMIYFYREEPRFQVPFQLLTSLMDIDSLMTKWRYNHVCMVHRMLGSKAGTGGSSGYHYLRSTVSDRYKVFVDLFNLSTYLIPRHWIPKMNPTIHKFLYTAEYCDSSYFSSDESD

[2] = biological target: T1, Tryptophan 2,3-dioxygenase; assay: as §1, with “10” for “100”; settings: time 40-70 min
Target sequence in this assay (P48775 whole entry, looked up, the tested form may be a part): as above

[3] = biological target: T1, Tryptophan 2,3-dioxygenase; assay: Inhibition of N-terminal hexa-histidine tagged human TDO (19 to 388 residues) expressed in Escherichia coli Transetta (DE3) using L-tryptophan as substrate preincubated with enzyme for 10 mins followed by substrate addition and measured after 30 to 60 mins by microplate reader analysis
Target sequence in this assay (P48775 whole entry, the tested form may be a part): as the sequence (P48775 whole entry, looked up, the tested form may be a part) above

[4] = biological target: T2, Indoleamine 2,3-dioxygenase 1 (Homo sapiens, UniProt P14902); assay: as §1, with “IDO1 (12” for “TDO (19”, “403” for “388”; settings: time 40-70 min
Target sequence in this assay (P14902 whole entry, looked up): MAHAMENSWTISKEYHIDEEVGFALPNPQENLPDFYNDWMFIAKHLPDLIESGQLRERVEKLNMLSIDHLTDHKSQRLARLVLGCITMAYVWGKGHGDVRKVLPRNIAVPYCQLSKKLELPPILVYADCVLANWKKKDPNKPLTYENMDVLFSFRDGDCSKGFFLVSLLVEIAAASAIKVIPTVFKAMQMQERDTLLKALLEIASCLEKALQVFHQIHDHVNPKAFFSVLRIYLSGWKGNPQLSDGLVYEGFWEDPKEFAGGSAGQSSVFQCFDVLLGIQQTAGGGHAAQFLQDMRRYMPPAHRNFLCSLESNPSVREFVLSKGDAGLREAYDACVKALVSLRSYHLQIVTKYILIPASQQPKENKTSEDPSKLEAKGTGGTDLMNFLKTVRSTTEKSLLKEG

[5] = biological target: T2, Indoleamine 2,3-dioxygenase 1; assay: as §1, with “IDO1 (12” for “TDO (19”, “403” for “388”, “10” for “100”; settings: time 40-70 min
Target sequence in this assay (P14902 whole entry, looked up): as above

[6] = biological target: T2, Indoleamine 2,3-dioxygenase 1; assay: Inhibition of N-terminal hexa-histidine tagged human IDO1 (12 to 403 residues) expressed in Escherichia coli Transetta (DE3) using L-tryptophan as substrate preincubated with enzyme for 10 mins followed by substrate addition and measured after 30 to 60 mins by microplate reader analysis
Target sequence in this assay (P14902 whole entry): as the sequence (P14902 whole entry, looked up) above

Row | Structure (SMILES) | inhibition [1] [%] | inhibition [2] [%] | IC50 [3] [µM] | inhibition [4] [%] | inhibition [5] [%] | IC50 [6] [µM]
1 | O=[N+]([O-])c1ccccc1CNc1cc(Br)cc2[nH]ncc12 | 64 | 52 | 38.9 | 83 | 67 | 8.04
2 | Oc1ccc(CNc2cc(C(F)(F)F)cc3[nH]ncc23)c(Cl)c1 | 97 | 92 | 2.68 | 95 | 83 | 6.02
3 | O=[N+]([O-])c1cc(OCc2ccccc2)ccc1CNc1cc(C(F)(F)F)cc2[nH]ncc12 | 55 | 49 | 97 | 20 | 10 | > 100
4 | O=[N+]([O-])c1ccccc1CNc1cc(Br)cc2cn[nH]c12 | 48 | 35 | > 100 | 9 | 4 | > 100
5 | CC(C)n1ncc2c(NCc3ccccc3[N+](=O)[O-])cc(C(F)(F)F)cc21 | 32 | 35 | > 100 | 13 | 7 | > 100
6 | FC(F)(F)c1cccc(CNc2cc(C(F)(F)F)cc3[nH]ncc23)c1 | 74 | 40 | 12.2 | 49 | 25 | > 100
7 | NCCn1ncc2c(NCc3ccccc3[N+](=O)[O-])cc(C(F)(F)F)cc21 | 29 | 25 | > 100 | 30 | 9 | > 100
8 | O=C1NCc2c(NCc3ccccc3[N+](=O)[O-])cccc21 | 29 | 23 | > 100 | 9 | 8 | > 100
9 | O=C(O)CNc1cccc(CNc2cc(C(F)(F)F)cc3[nH]ncc23)c1 | 65 |  | > 100 | 8 |  | > 100
10 | N#Cc1cc(NCc2ccccc2[N+](=O)[O-])c2cn[nH]c2c1 | 41 | 22 | > 100 | 17 | 7 | > 100
11 | FC(F)(F)c1cc(NCc2cccc(Br)c2)c2cn[nH]c2c1 | 84 | 67 | 19.1 | 51 | 23 | > 100
12 | OC1CCCC(Nc2cccc(CNc3cc(C(F)(F)F)cc4[nH]ncc34)c2)C1 (configuration not stated) | 23 |  | > 100 | 2 |  | > 100
13 | COC(=O)c1cc(NCc2ccccc2[N+](=O)[O-])c2cn[nH]c2c1 | 20 | 16 | > 100 | 47 | 11 | > 100
14 | O=[N+]([O-])c1ccc2[nH]c(CNc3cc(C(F)(F)F)cc4[nH]ncc34)cc2c1 | 69 | 54 | > 100 | 38 | 22 | > 100
15 | Nc1cccc(CNc2cc(C(F)(F)F)cc3[nH]ncc23)c1 | 89 | 68 | 2.51 | 55 | 24 | > 100
16 | FC(F)(F)c1cc(NC[C@H]2CCCCN2)c2cn[nH]c2c1 | 90 | 69 | 0.46 | 69 | 19 | 24
17 | FC(F)(F)c1cc(NCc2cccc3sccc23)c2cn[nH]c2c1 | 5 |  | > 100 | 3 |  | > 100
18 | O=[N+]([O-])c1cccc(CNc2cc(C(F)(F)F)cc3[nH]ncc23)c1 | 82 | 60 | 5.17 | 69 | 45 | > 100
19 | O=[N+]([O-])c1ccccc1CNc1cccc2[nH]ncc12 | 87 | 45 | 17 | 65 | 25 | 
